The text below walks through data of PubChem BioAssay (NCI).

SMILES strings stand for the structures.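 Following 48 hours of exposure in 96-well plates, responses at five concentrations were used to interpolate endpoints linearly. GI50 is the concentration that inhibits growth by half. Definition used: TGI = concentration required for complete inhibition of growth.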

What all share (test): NCI anticancer screen, dose series, 48 h
Experiment [1] has as its system 786-0 renal.
The test system of experiment [2] is A549 NSCLC.
Experiment [3] deals with BT-549 breast.
The test system of experiment [4] is HL-60(TB) leukemia.
The subject of experiment [5] is K-562 leukemia.
The subject of experiment [6] is LOX IMVI melanoma.
For experiment [7], the system named is MDA-MB-231 breast.
Experiment [8] has as its system NCI-H522 lung.
The test system of experiment [9] is OVCAR-3 ovarian.
Experiment [10] deals with SF-268 CNS.
Experiment [11] concerns SK-OV-3 ovarian.
Experiment [12] has as its system SNB-19 CNS.
Experiment [13] relates to TK-10 renal.
In experiment [14] the test system is UACC-257 melanoma.

Regarding `COc1ccc2cc(/C=N\NC(=O)Nc3ccc([N+](=O)[O-])cc3)ccc2c1`, the TGI in experiment [1] is 16.8 µM; in [2] it was 18.5 µM; in experiment [3] it was 18.6 µM; in [4] it was 30.7 µM; in experiment [5], greater than 31.6 µM; in experiment [6], 17.6 µM. The TGI is 19.1 µM in experiment [7]; 26.4 µM in [8]; 44.1 µM in [9]; greater than 31.6 µM in [10]; 18.5 µM in [11]; 20.1 µM in [12]. For the same molecule, the TGI was determined as 14.4 µM in experiment [13] and 20.7 µM in [14].
Turning to `COC(=O)/C=C/c1ccc2c(c1)[C@H](C(=O)OC)[C@@H](c1ccc(O)cc1)O2`, the TGI was greater than 100 µM in [1]; greater than 100 µM in experiment [2]; 46.4 µM in experiment [3]; 67.6 µM in [4]; greater than 100 µM in experiment [5]; 89.4 µM in [6]. Also, the TGI is greater than 100 µM in experiment [7]; 74.2 µM in experiment [8]; 28.2 µM in experiment [9]; 83.8 µM in experiment [10]; greater than 100 µM in experiment [11]; greater than 100 µM in [12]. Moreover, the TGI in experiment [13] and in [14] was greater than 100 µM in each case.
For the molecule `O=C1Nc2ccccc2/C1=N/N1C(=O)/C(=C/c2ccccc2S)N=C1c1ccccc1`, the TGI in [1], in experiment [2], in [3], in experiment [4], in [5] and in experiment [6] was greater than 100 µM throughout. For the same molecule, the TGI in [7], in experiment [8], in experiment [9], in [10], in [11] and in experiment [12] was greater than 100 µM each time. Moreover, the TGI in experiment [13] and in experiment [14] was greater than 100 µM each time.
For the molecule `COc1ccc(OC2OC(CO)C(O)C(O)C2O)cc1` (stereo not drawn), the TGI in [1], in experiment [2], in experiment [3], in experiment [4], in [5] and in experiment [6] was greater than 100 µM each time. For the same molecule, the TGI in experiment [7], in [8], in experiment [9], in [10], in experiment [11] and in experiment [12] was greater than 100 µM each time. For the same molecule, the TGI in experiment [13] and in experiment [14] was greater than 100 µM each time.
Take `CC1CN=C(NS(=O)(=O)c2cc(C(=O)Nc3ccccc3)c(Cl)cc2S)NN1` (stereo not drawn): the TGI in experiment [1], in experiment [2], in experiment [3], in experiment [4], in experiment [5] and in [6] was greater than 100 µM each time. In addition, the TGI in [7] is greater than 100 µM; in experiment [8], 76.1 µM; in experiment [9], greater than 100 µM; in [10] it was greater than 100 µM; in experiment [11] it was greater than 100 µM; in experiment [12], greater than 100 µM. Further, the TGI in experiment [13] and in [14] was greater than 100 µM in each case.
Take `Cc1c(-c2ccccc2)c(C#N)c2nnn(C)c(=O)n12`: the TGI in experiment [1], in experiment [2], in [3], in experiment [4], in experiment [5] and in experiment [6] was greater than 100 µM each time. Moreover, the TGI in experiment [7], in [8], in experiment [9], in experiment [10], in experiment [11] and in experiment [12] was greater than 100 µM throughout. Moreover, the TGI in experiment [13] and in [14] was greater than 100 µM in each case.
Take `N/N=C(/CC(O)(C(F)(F)F)C(F)(F)F)c1ccccc1`: the TGI in experiment [1], in experiment [2], in experiment [3], in [4], in [5] and in [6] was greater than 10 µM throughout. Moreover, the TGI in [7], in experiment [8], in [9], in experiment [10], in [11] and in experiment [12] was greater than 10 µM throughout. Also, the TGI in experiment [13] and in experiment [14] was greater than 10 µM throughout.
In the case of `COC(=O)C1Cc2c([nH]c3ccccc23)-c2[nH]c3ccccc3c2CC(NC(C)=O)C(=O)NCC(=O)NCC(=O)N1` (stereo not drawn), the TGI in experiment [1], in [2], in [3], in [4], in [5] and in experiment [6] was greater than 100 µM throughout. Besides, the TGI in experiment [7], in [8], in experiment [9], in experiment [10], in experiment [11] and in [12] was greater than 100 µM throughout. Besides, the TGI in experiment [13] and in experiment [14] was greater than 100 µM in each case.
In the case of `CN1C(=O)C(C#N)C2C[C@@]1(C)Oc1ccccc12` (stereo partly drawn), the TGI in experiment [1], in [2], in experiment [3], in experiment [4], in experiment [5] and in experiment [6] was greater than 100 µM each time. Also, the TGI in experiment [7], in experiment [8], in [9], in experiment [10], in experiment [11] and in experiment [12] was greater than 100 µM in each case. In addition, the TGI in [13] and in experiment [14] was greater than 100 µM throughout.
As for `CC1=NN(C(=O)CC(=O)Nc2ccc(Cl)cc2)C(=O)C1N=Nc1ccc(S(=O)(=O)c2ccc(N=NC3C(=O)N(C(=O)CC(=O)Nc4ccc(Cl)cc4)N=C3C)cc2)cc1` (stereo not drawn), the TGI in experiment [1], in experiment [2], in [3], in experiment [4], in [5] and in experiment [6] was greater than 100 µM each time. The TGI in [7], in experiment [8], in experiment [9], in experiment [10], in experiment [11] and in [12] was greater than 100 µM each time. Further, the TGI was 79.1 µM in [13] and greater than 100 µM in experiment [14].
For the molecule `COc1cc(/C=C2\CC(C)C/C(=C\c3ccc(O)c(OC)c3)C2=O)ccc1O` (stereo not drawn), the TGI in experiment [1] was greater than 100 µM; in experiment [2], 17.8 µM; in experiment [3] it was 12.3 µM; in experiment [4] it was greater than 30.6 µM; in [5], greater than 73.5 µM; in [6] it was 5.79 µM. The TGI stood at 8.35 µM in [7]; 3.86 µM in experiment [8]; 6.47 µM in experiment [9]; 20.7 µM in [10]; 12.4 µM in [11]; 22.3 µM in [12]. Also, the results for the TGI in experiment [13] and in experiment [14] were 15.8 µM and 9.08 µM, respectively.
Regarding `N#CCCN(CCCN(C(=O)Nc1ccc(NC(=O)N(CCCN(CCC#N)C(N)=O)c2ccccc2)cc1)c1ccccc1)C(N)=O`, the TGI in experiment [1], in [2], in experiment [3], in experiment [4], in experiment [5] and in [6] was greater than 100 µM each time. The TGI in experiment [7], in experiment [8], in experiment [9], in experiment [10], in [11] and in [12] was greater than 100 µM throughout. Also, the TGI in experiment [13] and in [14] was greater than 100 µM each time.
Turning to `COC(=O)/C(C#N)=C(/NCc1ccccc1)Nc1ccccc1`, the TGI in experiment [1], in experiment [2], in [3], in experiment [4], in experiment [5] and in experiment [6] was greater than 100 µM in each case. Further, the TGI in experiment [7], in [8], in experiment [9], in experiment [10], in experiment [11] and in experiment [12] was greater than 100 µM each time. For the same molecule, the TGI in experiment [13] and in experiment [14] was greater than 100 µM throughout.
Turning to `O=C(/C=C/c1ccccc1Br)c1ccccc1`, the TGI in experiment [1] was determined as 4.39 µM; in experiment [2], 25.3 µM; in experiment [3] it was 26.4 µM; in experiment [4], 3.07 µM; in experiment [5] it was 5.14 µM; in experiment [6], 2.64 µM. Besides, the TGI was 27.5 µM in experiment [7]; 9.73 µM in experiment [8]; 22.1 µM in experiment [9]; 10.5 µM in [10]; 30.5 µM in [11]; 23.2 µM in experiment [12]. The TGI in experiment [13] is 9.83 µM; in experiment [14] it was 24.1 µM.
For the molecule `O=C1OC(C2Cc3ccc4c(c3C2=O)CCCC4)c2ccccc21` (stereo not drawn), the TGI in experiment [1], in [2], in [3], in experiment [4], in experiment [5] and in experiment [6] was greater than 100 µM in each case. In addition, the TGI in experiment [7] was greater than 100 µM; in [8], greater than 100 µM; in experiment [9] it was 88.2 µM; in experiment [10], greater than 100 µM; in [11], greater than 100 µM; in experiment [12], greater than 100 µM. The TGI in [13] and in experiment [14] was greater than 100 µM throughout.
Turning to `O=c1cc(-c2ccc3ccccc3c2)[nH]c2ncccc12`, the TGI in experiment [1] is greater than 100 µM; in experiment [2], greater than 100 µM; in [3], greater than 100 µM; in experiment [4] it was 4.55 µM; in experiment [5], 12 µM; in [6] it was greater than 100 µM. Further, the TGI is greater than 100 µM in experiment [7]; 46 µM in [8]; greater than 100 µM in [9]; greater than 100 µM in experiment [10]; greater than 100 µM in experiment [11]; greater than 100 µM in experiment [12]. For the same molecule, the TGI in experiment [13] and in experiment [14] was greater than 100 µM in each case. The GI50 is 1.8 µM in [4] and 8.25 µM in experiment [9].
With `Cc1ccc(/C=C2\CCCCCC2=O)cc1`, the TGI in experiment [1], in experiment [2], in experiment [3], in experiment [4], in experiment [5] and in [6] was greater than 100 µM each time. Moreover, the TGI in experiment [7], in experiment [8], in experiment [9], in [10], in experiment [11] and in experiment [12] was greater than 100 µM each time. The TGI in experiment [13] and in experiment [14] was greater than 100 µM in each case.
For the molecule `CC(C)(C)CN1[C@@H]2CCCC[C@H]2N(CC(C)(C)C)P1(=O)C(O)/C=C/c1ccccc1` (stereo partly drawn), the TGI in experiment [1] was greater than 100 µM; in experiment [2], greater than 100 µM; in [3] it was greater than 100 µM; in [4], 81.1 µM; in experiment [5], greater than 100 µM; in experiment [6], 37.3 µM. Further, the TGI in [7], in experiment [8], in experiment [9], in experiment [10], in [11] and in experiment [12] was greater than 100 µM throughout. Moreover, the TGI in experiment [13] and in [14] was greater than 100 µM throughout.
In the case of `CN(C)c1cccc(/C=C(\C#N)c2ccccc2)c1`, the TGI was greater than 60.9 µM in [1]; greater than 79.9 µM in experiment [2]; greater than 100 µM in experiment [3]; 1.34 µM in [4]; greater than 14.4 µM in experiment [5]; greater than 59.5 µM in [6]. Besides, the TGI was 53.7 µM in [7]; 5.75 µM in experiment [8]; 3.29 µM in experiment [9]; greater than 100 µM in experiment [10]; greater than 49.9 µM in [11]; greater than 53.8 µM in experiment [12]. In addition, the results for the TGI in experiment [13] and in [14] were 56.6 µM and greater than 71.7 µM, respectively.
